{"source": "patent US20260274895A1", "about": "“DE NOVO DESIGNED MEMBRANE-TRAVERSING AND ORALLY BIOAVAILABLE MACROCYCLES” (UNIVERSITY OF WASHINGTON, priority 2022, published 2026)", "note": "Where a SMILES comes first, the peptide text is derived from it. [ ]: non-standard residue; d: D form. NMeF = CN[C@@H](Cc1ccccc1)C(=O)O; NMeI = CC[C@H](C)[C@H](NC)C(=O)O; dNMeF = CN[C@H](Cc1ccccc1)C(=O)O; NMeL = CN[C@@H](CC(C)C)C(=O)O; dNMeL = CN[C@H](CC(C)C)C(=O)O; NMeM = CN[C@@H](CCSC)C(=O)O; NMeV = CN[C@H](C(=O)O)C(C)C; NMeA = CN[C@@H](C)C(=O)O; Nle = CCCC[C@H](N)C(=O)O; dNMeA = CN[C@H](C)C(=O)O; Aib = CC(C)(N)C(=O)O", "data": [{"conditions": "not given", "values": [{"smiles": "CC(C)C[C@@H]1C(=O)N[C@H](C(C)C)C(=O)N[C@H](C)C(=O)N2CCC[C@@H]2C(=O)N(C)[C@H](CC(C)C)C(=O)N[C@H](C(C)C)C(=O)N[C@H](C)C(=O)N2CCC[C@@H]2C(=O)N1C", "note": "[Design D8.31, ap*lvap*lv] (cyclo([dA][dP][dNMeL][dV][dA][dP][dNMeL][dV]))", "membrane permeability in PAMPA (in words)": "membrane permeable"}, {"smiles": "CC(C)C[C@@H]1NC(=O)[C@H]2CCCN2C(=O)[C@@H](CC(C)C)NC(=O)[C@@H](CC(C)C)NC(=O)[C@@H](CC(C)C)N(C)C(=O)[C@H](C(C)C)NC(=O)[C@@H](C)NC(=O)[C@@H](C)N(C)C(=O)[C@@H]2CCCN2C1=O", "note": "[Design D9.16, P*aaV*lllpL] (cyclo(LP[dNMeA][dA]V[dNMeL][dL][dL][dP]))", "membrane permeability in PAMPA (in words)": "significant permeability"}]}, {"conditions": "PAMPA", "units": {"PAMPA_Papp_Avg (apparent permeability)": "×10⁻⁶ cm/s"}, "values": [{"smiles": "CC(C)C[C@@H]1NC(=O)[C@H](CC(C)C)N(C)C(=O)[C@H]2CCCN2C(=O)[C@@H](C)NC(=O)[C@@H](C)N(C)C(=O)[C@@H](C(C)C)NC(=O)[C@@H](CC(C)C)N(C)C(=O)[C@@H]2CCCN2C1=O", "note": "[Design D8.30, ap*LLP*lv*a] (cyclo(LP[dNMeL][dV][dNMeA][dA][dP][NMeL]))", "PAMPA_Papp_Avg (apparent permeability)": 4.32}, {"smiles": "CC[C@H](C)[C@@H]1NC(=O)[C@@H](CC(C)C)N(C)C(=O)[C@@H]2CCCN2C(=O)[C@H](C(C)C)NC(=O)C(C)(C)NC(=O)[C@H](CC(C)C)NC(=O)C(C)(C)NC(=O)[C@@H]2CCCN2C(=O)[C@H]2CCCN2C1=O", "note": "[Design D9.1, pPBLBVP*lI] (cyclo([Aib]L[Aib]VP[dNMeL]I[dP]P))", "PAMPA_Papp_Avg (apparent permeability)": 1.59}, {"smiles": "CC[C@@H](C)[C@H]1NC(=O)[C@H](CC(C)C)NC(=O)[C@@H](CC(C)C)NC(=O)[C@H](C(C)C)NC(=O)[C@@H](Cc2ccccc2)N(C)C(=O)[C@@H]2CCCN2C(=O)[C@@H](CC(C)C)NC(=O)[C@H](CC(C)C)N(C)C(=O)[C@H]2CCCN2C1=O", "note": "[Design D9.3, Lip*LlP*fVl] (cyclo(L[dI][dP][NMeL][dL]P[dNMeF]V[dL]))", "PAMPA_Papp_Avg (apparent permeability)": 2.33}, {"smiles": "CC[C@H](C)[C@@H]1NC(=O)[C@H](Cc2ccccc2)N(C)C(=O)[C@H](CC(C)C)N(C)C(=O)[C@@H](C(C)C)NC(=O)[C@@H](C)NC(=O)[C@@H]2CCCN2C(=O)[C@@H](CC(C)C)NC(=O)[C@@H]2CCCN2C(=O)[C@H](C)NC1=O", "note": "[Design D9.6, Pav*L*FIAPl] (cyclo(AP[dL]P[dA][dV][NMeL][NMeF]I))", "PAMPA_Papp_Avg (apparent permeability)": 1.63}, {"smiles": "CC(C)C[C@H]1NC(=O)[C@@H]2CCCN2C(=O)[C@@H](C(C)C)NC(=O)[C@@H](C)N(C)C(=O)[C@@H](C(C)C)NC(=O)[C@@H]2CCCN2C(=O)[C@@H](Cc2ccccc2)NC(=O)[C@H](CC(C)C)N(C)C(=O)[C@@H](C(C)C)NC1=O", "note": "[Design D9.9, Pv*avPlv*Lf] (cyclo([NMeL][dF]P[dV][dNMeA][dV]P[dL][dV]))", "PAMPA_Papp_Avg (apparent permeability)": 3.51}, {"smiles": "CC[C@H](C)[C@@H]1NC(=O)[C@@H](CC(C)C)N(C)C(=O)[C@H](CC(C)C)N(C)C(=O)[C@@H](C)N(C)C(=O)[C@@H](Cc2ccccc2)NC(=O)[C@H](C(C)C)NC(=O)[C@@H](C)NC(=O)[C@@H]2CCCN2C(=O)[C@H]2CCCN2C1=O", "note": "[Design D9.10, Vf*a*L*lIpPa] (cyclo([dA]V[dF][dNMeA][NMeL][dNMeL]I[dP]P))", "PAMPA_Papp_Avg (apparent permeability)": 0.826}, {"smiles": "CC[C@@H](C)[C@H]1NC(=O)[C@H]2CCCN2C(=O)[C@H]([C@@H](C)CC)NC(=O)[C@H](CC(C)C)N(C)C(=O)[C@H]2CCCN2C(=O)[C@@H]2CCCN2C(=O)[C@H](Cc2ccccc2)N(C)C(=O)[C@H](Cc2ccccc2)NC(=O)[C@H]([C@@H](C)CC)NC1=O", "note": "[Design D9.13, piIF*FPp*LI] (cyclo(F[NMeF]P[dP][NMeL]I[dP][dI]I))", "PAMPA_Papp_Avg (apparent permeability)": 3.37}, {"smiles": "CC(C)C[C@@H]1C(=O)N[C@H](C(C)C)C(=O)N(C)[C@@H](C(C)C)C(=O)N2CCC[C@H]2C(=O)N2CCC[C@@H]2C(=O)N[C@@H](C)C(=O)N(C)[C@@H](Cc2ccccc2)C(=O)N(C)[C@H](CC(C)C)C(=O)N[C@H](C)C(=O)N1C", "note": "[Design D9.17, pA*F*la*lv*VP] (cyclo(A[NMeF][dNMeL][dA][dNMeL][dV][NMeV]P[dP]))", "PAMPA_Papp_Avg (apparent permeability)": 1.74}, {"smiles": "CC(C)C[C@@H]1C(=O)N(C)[C@H](CC(C)C)C(=O)N2CCC[C@H]2C(=O)N[C@H](CC(C)C)C(=O)N2CCC[C@@H]2C(=O)N2CCC[C@@H]2C(=O)N(C)[C@H](CC(C)C)C(=O)N[C@H](Cc2ccccc2)C(=O)N[C@@H](C)C(=O)N1C", "note": "[Design D9.18, A*l*lPlpp*lf] (cyclo(A[dNMeL][dNMeL]P[dL][dP][dP][dNMeL][dF]))", "PAMPA_Papp_Avg (apparent permeability)": 1.76}, {"smiles": "CC(C)C[C@@H]1NC(=O)[C@@H](CC(C)C)NC(=O)[C@@H](CC(C)C)N(C)C(=O)[C@@H](CC(C)C)N(C)C(=O)[C@H](C(C)C)NC(=O)[C@@H](C)N(C)C(=O)[C@@H]2CCCN2C(=O)[C@@H]2CCCN2C(=O)[C@@H](C)N(C)C1=O", "note": "[Design D9.19, P*aV*l*llL*aP] (cyclo(L[dNMeA]PP[dNMeA]V[dNMeL][dNMeL][dL]))", "PAMPA_Papp_Avg (apparent permeability)": 1.28}, {"smiles": "CCCC[C@@H]1NC(=O)[C@H](C(C)C)NC(=O)[C@H]2CCCN2C(=O)[C@@H]2CCCN2C(=O)[C@H](C)NC(=O)[C@@H](C)N(C)C(=O)[C@@H](CC(C)C)N(C)C(=O)[C@@H](C(C)C)NC(=O)[C@@H]2CCCN2C1=O", "note": "[Design D9.21, APpVMPv*l*a] (cyclo(AP[dP]V[Nle]P[dV][dNMeL][dNMeA]))", "PAMPA_Papp_Avg (apparent permeability)": 0.294}, {"smiles": "CC(C)C[C@@H]1NC(=O)[C@@H]2CCCN2C(=O)[C@H]2CCCN2C(=O)[C@@H](C)N(C)C(=O)[C@@H](CC(C)C)N(C)C(=O)[C@H](C(C)C)NC(=O)[C@@H](C)N(C)C(=O)[C@H]2CCCN2C(=O)[C@@H]2CCCN2C1=O", "note": "[Design D9.22, p*aV*l*apPLP] (cyclo(LP[dP][dNMeA]V[dNMeL][dNMeA][dP]P))", "PAMPA_Papp_Avg (apparent permeability)": 0.189}, {"smiles": "CC[C@@H](C)[C@H]1NC(=O)[C@@H](CC(C)C)NC(=O)[C@@H]2CCCN2C(=O)[C@H]2CCCN2C(=O)[C@@H](C(C)C)NC(=O)[C@H](C)NC(=O)[C@@H]2CCCN2C(=O)[C@@H]([C@H](C)CC)NC(=O)[C@@H](C)N(C)C1=O", "note": "[Design D9.23, i*aiPAVpPl] (cyclo([dL][dI][dNMeA][dI]PA[dV][dP]P))", "PAMPA_Papp_Avg (apparent permeability)": 0.141}, {"smiles": "CSCC[C@H]1C(=O)N(C)[C@H](C)C(=O)N[C@H](CC(C)C)C(=O)N2CCC[C@@H]2C(=O)N2CCC[C@H]2C(=O)N[C@@H](CC(C)C)C(=O)N2CCC[C@H]2C(=O)N2CCC[C@@H]2C(=O)N[C@H](C(C)C)C(=O)N1C", "note": "[Design D9.24, pv*M*alpPLP] (cyclo(LP[dP][dV][NMeM][dNMeA][dL][dP]P))", "PAMPA_Papp_Avg (apparent permeability)": 0.0869}, {"smiles": "CC(C)C[C@@H]1NC(=O)[C@H](Cc2ccccc2)N(C)C(=O)[C@H]2CCCN2C(=O)[C@@H](CC(C)C)NC(=O)[C@@H](CC(C)C)NC(=O)[C@H](C)NC(=O)[C@H]2CCCN2C(=O)[C@@H]2CCCN2C(=O)[C@@H](C(C)C)NC1=O", "note": "[Design D9.32, pAllp*FLvP] (cyclo(A[dL][dL][dP][NMeF]L[dV]P[dP]))", "PAMPA_Papp_Avg (apparent permeability)": 0.24}, {"smiles": "CC[C@H](C)[C@@H]1NC(=O)CNC(=O)[C@@H]2CCCN2C(=O)[C@H]2CCCN2C(=O)[C@H]([C@@H](C)CC)NC(=O)[C@@H](C)N(C)C(=O)[C@@H]2CCCN2C(=O)[C@H](C(C)C)NC(=O)[C@@H](CC(C)C)NC1=O", "note": "[Design D9.33, pPGIlVP*aI] (cyclo(GI[dL]VP[dNMeA]I[dP]P))", "PAMPA_Papp_Avg (apparent permeability)": 0.317}, {"smiles": "CCCC[C@@H]1NC(=O)[C@H]2CCCN2C(=O)[C@H](C(C)C)NC(=O)[C@@H](CC(C)C)N(C)C(=O)[C@H](Cc2ccccc2)NC(=O)[C@H](CC(C)C)NC(=O)[C@@H](CC(C)C)N(C)C(=O)[C@@H]2CCCN2C(=O)[C@@H](CC(C)C)NC1=O", "note": "[Design D9.40, pMlP*lLF*lV] (cyclo(F[dNMeL]V[dP][Nle][dL]P[dNMeL]L))", "PAMPA_Papp_Avg (apparent permeability)": 0.238}, {"smiles": "CC[C@H](C)[C@@H]1NC(=O)[C@H]2CCCN2C(=O)[C@@H]2CCCN2C(=O)[C@H](C(C)C)NC(=O)[C@@H](C(C)C)NC(=O)[C@H](Cc2ccccc2)N(C)C(=O)[C@H]2CCCN2C(=O)[C@@H](CC(C)C)N(C)C(=O)[C@@H](CC(C)C)NC1=O", "note": "[Design D9.42, pIl*lp*FvVP] (cyclo(I[dL][dNMeL][dP][NMeF][dV]VP[dP]))", "PAMPA_Papp_Avg (apparent permeability)": 1.12}, {"smiles": "CC(C)C[C@@H]1NC(=O)[C@@H](CC(C)C)NC(=O)[C@@H]2CCCN2C(=O)[C@@H](CC(C)C)NC(=O)[C@H](C)N(C)C(=O)[C@H](C)NC(=O)[C@H](CC(C)C)N(C)C(=O)[C@@H]2CCCN2C(=O)[C@H](CC(C)C)NC(=O)[C@H](CC(C)C)N(C)C1=O", "note": "[Design D10.16, lL*LLP*LA*AlP] (cyclo(A[NMeA][dL]P[dL]L[NMeL]LP[NMeL]))", "PAMPA_Papp_Avg (apparent permeability)": 2.27}, {"smiles": "CC[C@H](C)[C@H]1C(=O)N[C@H](C)C(=O)N[C@@H](CC(C)C)C(=O)N[C@@H](C(C)C)C(=O)N2CCC[C@@H]2C(=O)N(C)[C@@H](CC(C)C)C(=O)N[C@@H](C(C)C)C(=O)N2CCC[C@H]2C(=O)N(C)[C@H](CC(C)C)C(=O)N[C@@H](C(C)C)C(=O)N1C", "note": "[Design D10.19, aLVp*LVP*lV*I] (cyclo(LV[dP][NMeL]VP[dNMeL]V[NMeI][dA]))", "PAMPA_Papp_Avg (apparent permeability)": 6.36}, {"smiles": "CC(C)C[C@@H]1NC(=O)[C@@H](Cc2ccccc2)NC(=O)[C@@H](CC(C)C)N(C)C(=O)[C@@H]2CCCN2C(=O)[C@H](C)NC(=O)[C@@H](CC(C)C)N(C)C(=O)[C@@H]2CCCN2C(=O)[C@H](CC(C)C)N(C)C(=O)[C@H](CC(C)C)N(C)C(=O)[C@H](C(C)C)NC1=O", "note": "[Design D10.20, P*lAP*lfLV*L*L] (cyclo(AP[dNMeL][dF]LV[NMeL][NMeL]P[dNMeL]))", "PAMPA_Papp_Avg (apparent permeability)": 2.59}, {"smiles": "CC(C)[C@@H]1NC(=O)[C@H]2CCCN2C(=O)[C@@H](C(C)C)NC(=O)[C@@H]2CCCN2C(=O)[C@H](Cc2ccccc2)NC(=O)[C@H](Cc2ccccc2)NC(=O)[C@H]2CCCN2C(=O)[C@@H](C(C)C)NC(=O)[C@@H]2CCCN2C(=O)[C@H](C(C)C)NC1=O", "note": "[Design D10.27, PvpVVPvpFF] (cyclo(FFP[dV][dP]VVP[dV][dP]))", "PAMPA_Papp_Avg (apparent permeability)": 0.49}]}]}
